{"source": "patent US8337900B2", "about": "“Reverse-phase microcapsules for active ingredients, simplified process of manufacture thereof and combined formulation WDG-CS, ZC, EC-SC, and CX” (priority 2006, dated 2012)", "key": {"[1]": {"conditions": "cited from earlier work"}, "[2]": {"assay": "Stability to hydrolysis versus commercial formulations", "type": "physicochemical", "conditions": "in a CX, microencapsulated in NPμ and combined with sulfosate", "excerpt": "This refers to the typical variations: thifensulfuron-ethyl<→thifensulfuron, etc."}, "[3]": {"assay": "Accelerated heat stability test (54° C.), physical stability and chemical degradation by HPLC", "type": "physicochemical", "conditions": "NPμ in a CX-w; results and process not shown", "experimental": "Both formulations were submitted to accelerated heat stability tests (at 54° C. for 2 weeks).\nAlso, presence of unencapsulated material—water soluble a.i.—was below 0.1%.\nThese tests were performed with HPLC and standard methods of analysis under Good Laboratory Practice conditions."}}, "data": [{"smiles": "O=C(O)c1cc(Oc2ccc(C(F)(F)F)cc2Cl)ccc1[N+](=O)[O-]", "note": "[acifluorfen-sodium]", "values": [{"measurement": "solubility in isooctanol", "setting": "[1]; isooctanol", "value": "around 6 g/L"}, {"measurement": "solubility in water", "setting": "[1]; water", "value": "about 60 g/L"}]}, {"smiles": "COc1cc(OC)nc(NC(=O)NS(=O)(=O)c2ncccc2C(=O)N(C)C)n1", "note": "[nicosulfuron]", "values": [{"measurement": "more stable to hydrolysis than current commercial formulations", "setting": "[2]", "value": "at least 20 % times"}]}, {"smiles": "CC(C)(C)C(O)(CCc1ccc(Cl)cc1)Cn1cncn1", "note": "(centres unmarked) [tebuconazole]", "values": [{"measurement": "solubility in hexane", "setting": "[1]; hexane", "value": "lower than 0.1 g/L"}]}, {"smiles": "COC(=O)c1ccccc1S(=O)(=O)NC(=O)N(C)c1nc(C)nc(OC)n1", "note": "[tribenuron-methyl]", "values": [{"measurement": "degradation inhibition by microencapsulation", "setting": "[3]", "value": "equally observed"}]}]}
